Measurements published in patent publication US11160272B2, “Methods for preserving tissue with medical grade honey” (TRITICUM EXPLOITATIE B.V., priority 2017, dated 2021).

System: bovine ovarian cortex tissue
Test: Endothelial cell density (Factor VIII immunolocalization) in cultured ovarian cortex tissue
Type: cell-based
Conditions: treatment mean over 0 h, 4 h, 24 h, 48 h; L-Mesitran 0.2%, VEGF 50 ng.mL-1; in vitro culture TCM-199 with 10% cow serum
Text: Four mature crossbred beef cows (12 months of age) were used for this study. […] The 0.2% v/v concentration (L-Mesitran) was chosen according to the highest reported pro-angiogenic effect for this medical grade honey in an in vitro tissue culture. The ovarian cortex endothelial immunolocalization was quantified using Factor VIII [9] R Ag. Rabbit Polyclonal Antibody (ref 760-2642; BenchMark ULTRA IHC/ISH Module staining protocol; Ventana Medical Systems, Inc.; Roche, USA) at concentrations of 2.26 µg/ml, and Fiji software for the digital analysis, after 0 h, 4 h, 24 h and 48 h in each of the mentioned 4 groups. Cellular cytotoxicity (quantitation of lactate dehydrogenase, LDH [11], in cell culture supernatant) was also evaluated in the same mentioned time periods (CytoTox 96® Non-Radioactive Cytotoxicity Assay G1782, Promega GloMax Multi Detection System).
Data from ovarian cortex tissue endothelial density (immunohistochemistry data) and LDH quantification in cell culture supernatant, were analysed using the proc glimmix of SAS (Statistical Analysis Systems, SAS Inst., Inc., Cary, N.C., USA). The models included treatments and hours as fixed effects, and animal (cow) as random (co-variable) effect. The means of each treatment/hours were calculated and compared by the PDIFF multiple comparison test. The differences were considered significant for P≤0.05.

VEGF
Endothelial cell density (Factor VIII immunolocalization), treatment effect: 0.2942±0.1486
